These are literature values, as cited in patent US8236927B2, “Stabilizer molecule-depleted albumin solution” (Albutec GmbH, priority 2005, dated 2012).

In this data set the target is T1, binding site II (diazepam binding site) of the albumin (Homo sapiens, UniProt P02768).
T1 construct: commercial albumin, stabilized with 5.2 mmole of octanoate and 5.2 mmol of N-acetyl tryptophanate per mmol albumin; purchased
The note with it: N-acetyl tryptophan added stepwise up to a molar ratio of 1:1; reduced from 100%.

T1 sequence (P02768 25-609): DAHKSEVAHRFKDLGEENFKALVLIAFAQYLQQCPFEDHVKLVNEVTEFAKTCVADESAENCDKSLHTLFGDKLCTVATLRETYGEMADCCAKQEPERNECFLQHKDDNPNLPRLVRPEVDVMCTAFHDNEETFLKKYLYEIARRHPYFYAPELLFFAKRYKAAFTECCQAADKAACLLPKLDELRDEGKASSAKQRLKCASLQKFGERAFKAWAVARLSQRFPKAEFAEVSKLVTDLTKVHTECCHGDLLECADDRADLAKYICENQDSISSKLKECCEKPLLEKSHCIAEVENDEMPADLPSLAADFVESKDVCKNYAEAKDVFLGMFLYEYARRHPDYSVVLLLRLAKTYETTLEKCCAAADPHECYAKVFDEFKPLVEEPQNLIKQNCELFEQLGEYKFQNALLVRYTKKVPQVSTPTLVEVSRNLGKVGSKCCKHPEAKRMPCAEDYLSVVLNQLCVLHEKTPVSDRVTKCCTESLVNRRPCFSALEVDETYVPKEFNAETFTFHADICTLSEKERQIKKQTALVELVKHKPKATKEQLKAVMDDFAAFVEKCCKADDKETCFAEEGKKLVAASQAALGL

As for `CC(=O)N[C@@H](Cc1c[nH]c2ccccc12)C(=O)O` [N-acetyl tryptophan], the “binding capacity for dansylsarcosin of ligand-free albumin” value is “about 60%”.
